Laboratory results as given in patent publication US20110039783A1, “PEPTIDE HAVING HYPOTENSIVE ACTIVITY” (DAIICHI SANKYO COMPANY LIMITED, priority 2007, published 2011).
Entries after “also recorded” stand apart in the source; their conditions may differ. Where no end group is shown, it is not given here.

How the values were obtained:
[1] = test system: blood pressure of anesthetized Sprague-Dawley IGS male rats; assay: Hypotensive activity in anesthetized rats, invasive blood pressure measurement after intravenous administration; type: in vivo, rat; conditions: for Hypotensive activity (dose/rat) 10 nmol / Hypotensive activity (dose/rat) 30 nmol / Hypotensive activity (dose/rat) 100 nmol: intravenous; for Hypotensive activity (dose/rat) 10 nmol: 10 nmol/rat; for Hypotensive activity (dose/rat) 30 nmol: 30 nmol/rat; for Hypotensive activity (dose/rat) 100 nmol: 100 nmol/rat
Procedure: 50 mg/kg pentobarbital sodium was intraperitoneally administered to 8- to 10-week-old Sprague-Dawley IGS male rats (Charles River Laboratories Japan, Inc.) for anesthesia. Thereafter, a tracheal cannula (PE 250), a femoral vein cannula (PE50), and a femoral artery cannula (PESO) were inserted into each rat. The femoral artery cannula was connected with a pressure transducer (PE23XL; manufactured by Nihon Kohden Corporation), and an apparatus formed by incorporating a blood pressure measurement unit (AP-641G; manufactured by Nihon Kohden Corporation) and an instantaneous heart rate measurement unit (AT-601G; manufactured by Nihon Kohden Corporation) into a multi-purpose preamplifier (RP-6004; manufactured by Nihon Kohden Corporation) was used to record the blood pressure and heart rate of each rat. The blood pressure was calibrated using a mercury manometer included in a stand-type electromanometer (MP-25S; manufactured by Nihon Kohden Corporation). The recording paper was adjusted, such that 10 mm or 20 mm on the recording paper corresponded to 100 mmHg.
Each peptide was dissolved in a concentration of 1 mM or 10 mM in a 0.1% acetic acid solution to prepare a peptide solution. Thereafter, depending on dose, it was diluted with a normal saline containing 0.1% bovine serum albumin (Fr.V). In the case of the dose of 10 nmol/rat, a 1 mM peptide solution was 10 times diluted, and 100 μl of the diluted solution was administered. In the case of the dose of 30 nmol/rat, a 1 mM peptide solution was 10 times diluted, and 300 μL, of the diluted solution was administered. In the case of the dose of 100 nmol/rat, a 10 mM peptide solution was 10 times diluted, and 100 μL of the diluted solution was administered. Each peptide was intravenously administered via the femoral vein cannula, and the systolic blood pressure, diastolic blood pressure, and heart rate were then measured.
Various HC021 derivative peptides were synthesized in accordance with Example 1, and such peptide was then administered to each rat at a dose of 10 nmol/rat, 30 nmol/rat, or 100 mol/rat by the method described in Example 2. Thereafter, the hypotensive activity of each derivative peptide was measured. […] The strength of such activity was determined using a median of activity in repeated experiments. In addition, in order to make a comparison among the activities of various derivative peptides, the strength of hypotensive activity was defined as follows.
Strength of Hypotensive Activity
Extremely strong activity (+++): A decrease in systolic blood pressure is 30 mmHg or more, and the time required for recovery is 5 minutes or more.
Strong activity (++): A decrease in systolic blood pressure is 20 mmHg or more and less than 30 mmHg, or the time required for recovery is less than 5 minutes.
Activity observed (+): A decrease in systolic blood pressure is less than 20 mmHg.
Activity not observed (−)
Various HC021 peptide sequence-substituted products were synthesized in accordance with Example 1, and their hypotensive activity was then measured according to the method of Example 3.

[2] = test system: blood pressure of awake Sprague-Dawley IGS male rats; assay: Hypotensive activity on awake rats; type: in vivo, rat; design: key to Hypotensive activity (dose/rat) 10 nmol / Hypotensive activity (dose/rat) 30 nmol: Extremely strong activity (+++): A decrease in systolic blood pressure is 30 mmHg or more, and the time required for recovery is 5 minutes or more.; Strong activity (++): A decrease in systolic blood pressure is 20 mmHg or more and less than 30 mmHg, or the time required for recovery is less than 5 minutes.; Activity observed (+): A decrease in systolic blood pressure is less than 20 mmHg.; Activity not observed (−); conditions: for Hypotensive activity (dose/rat) 10 nmol / Hypotensive activity (dose/rat) 30 nmol / Hypotensive activity (dose/rat) 100 nmol: Table 4, intravenous; for Hypotensive activity (dose/rat) 10 nmol: 10 nmol/rat; for Hypotensive activity (dose/rat) 30 nmol: 30 nmol/rat; for Hypotensive activity (dose/rat) 100 nmol: 100 nmol/rat
Procedure: 50 mg/kg pentobarbital sodium was intraperitoneally administered to 8- to 10-week-old Sprague-Dawley IGS male rats (Charles River Laboratories Japan, Inc.) for anesthesia. Thereafter, a jugular vein cannula (Silascon 0.5-1.0) was inserted into each rat for use in peptide administration, and a carotid artery cannula (PE50) was inserted into each rat for use in the measurement of blood pressure. At least 3 hours after the surgery, it was confirmed that the rats were awoken from the anesthesia based on general conditions such as the posture, respiration, and the like of the rats. Thereafter, the rats were subjected to the experiment.
The carotid artery cannula was connected with a pressure transducer (PE23XL; manufactured by Nihon Kohden Corporation), and an apparatus formed by incorporating a blood pressure measurement unit (AP-641G; manufactured by Nihon Kohden Corporation) and an instantaneous heart rate measurement unit (AT-601G; manufactured by Nihon Kohden Corporation) into a multi-purpose preamplifier (RP-6004; manufactured by Nihon Kohden Corporation) was used to record the blood pressure and heart rate of each rat. The blood pressure was calibrated using a mercury manometer included in a stand-type electromanometer (MP-25S; manufactured by Nihon Kohden Corporation). The recording paper was adjusted, such that 20 mm or 40 mm on the recording paper corresponded to 100 mmHg. A solvent in which each peptide had been dissolved was used as a negative control in blood pressure fluctuation.
Each peptide was dissolved in a concentration of 1 mM in a 5% mannitol solution to prepare a peptide solution. Thereafter, depending on dose, it was diluted with a 5% mannitol solution. In the case of the dose of 10 nmol/rat, a 1 mM peptide solution was 30 times diluted, and 300 μL of the diluted solution was administered. In the case of the dose of 30 nmol/rat, a 1 mM peptide solution was 10 times diluted, and 300 μl of the diluted solution was administered. In the case of the dose of 100 nmol/rat, a 1 mM peptide solution was 3 times diluted, and 300 μL of the diluted solution was administered. Each peptide was intravenously administered via the jugular vein cannula, and the systolic blood pressure, diastolic blood pressure, and heart rate were then measured.
The definition of the strength of hypotensive activity was the same as that of Example 3.

[3] = test system: anti-[N-Cys]-HC021-004 serum; assay: ELISA binding of anti-[N-Cys]-HC021-004 serum to coated peptides; design: species or system rabbit; conditions: absorbance at 405 nm, FIG. 3
From the text: Using [N-Cys]-HC021-004 (a peptide prepared by binding cysteine to the amino terminus of HC021-004) as an antigen, a rabbit was immunized with the antigen to produce antiserum (anti-[N-Cys]-HC021-004 serum).
The ability of this antiserum to bind to peptides having various types of sequences was examined using Protein Detector™ ELISA kit (AP; BluePhos System; manufactured by KPL). Reactions were all carried out at a room temperature. A 96-well immunoplate (maxi-coated; manufactured by Nunc) was coated (amount: 100 uL/well) with each peptide having a different type of sequence (concentration: 1 ng/100 uL) for 1 hour. Then, it was blocked with a 300 uL/well blocking solution for 1 hour. Thereafter, the serially diluted antiserum was added in an amount of 100 uL/well to the immunoplate, followed by reaction for 1 hour. After completion of washing, 500-times diluted Anti-rabbit IgG HRP Ab (manufactured by KPL) was added thereto in an amount of 100 uL/well, followed by reaction for 1 hour. After completion of washing, ABTS (manufactured by KPL) used as a substrate was added thereto in an amount of 100 uL/well. Thirty minutes later, the absorbance at 405 nm was measured.

NRDLFFRRLQAYFK-amide (NRDLFFRRLQAYFK-NH2) [Compound 3]
Hypotensive activity (dose/rat) 10 nmol ([1]; Table 1, anesthetized rats): + (Activity observed (+): A decrease in systolic blood pressure is less than 20 mmHg.)
Hypotensive activity (dose/rat) 30 nmol ([1]; Table 1, anesthetized rats): ++ (Strong activity (++): A decrease in systolic blood pressure is 20 mmHg or more and less than 30 mmHg, or the time required for recovery is less than 5 minutes.)
Hypotensive activity (dose/rat) 100 nmol ([1]; Table 1, anesthetized rats): +++ (Extremely strong activity (+++): A decrease in systolic blood pressure is 30 mmHg or more, and the time required for recovery is 5 minutes or more.)
Hypotensive activity (dose/rat) 10 nmol ([1]; Table 2, anesthetized rats): + (Activity observed (+): A decrease in systolic blood pressure is less than 20 mmHg.)
Hypotensive activity (dose/rat) 30 nmol ([1]; Table 2, anesthetized rats): ++ (Strong activity (++): A decrease in systolic blood pressure is 20 mmHg or more and less than 30 mmHg, or the time required for recovery is less than 5 minutes.)
Hypotensive activity (dose/rat) 100 nmol ([1]; Table 2, anesthetized rats): +++ (Extremely strong activity (+++): A decrease in systolic blood pressure is 30 mmHg or more, and the time required for recovery is 5 minutes or more.)
Hypotensive activity (dose/rat) 10 nmol ([1]; Table 3, anesthetized rats): + (Activity observed (+): A decrease in systolic blood pressure is less than 20 mmHg.)
Hypotensive activity (dose/rat) 30 nmol ([1]; Table 3, anesthetized rats): ++ (Strong activity (++): A decrease in systolic blood pressure is 20 mmHg or more and less than 30 mmHg, or the time required for recovery is less than 5 minutes.)
Hypotensive activity (dose/rat) 100 nmol ([1]; Table 3, anesthetized rats): +++ (Extremely strong activity (+++): A decrease in systolic blood pressure is 30 mmHg or more, and the time required for recovery is 5 minutes or more.)
dose dependence of hypotensive activity ([1]; anesthetized rats, 10, 30, 100 nmol/rat): enhanced their hypotensive activity in a dose-dependent manner
hypotensive activity (in words) ([1]; anesthetized rats, Table 1 and FIG. 1, 10 or 30 nmol/rat, listed as HC021-004): observed to have a hypotensive activity; also recorded: act to lower the blood pressure of rats
hypotensive activity (in words) [2]: observed to have a hypotensive activity even on the awake rats
Hypotensive activity (dose/rat) 10 nmol [2]: −
Hypotensive activity (dose/rat) 30 nmol [2]: −
Hypotensive activity (dose/rat) 100 nmol [2]: ++ (Strong activity (++): A decrease in systolic blood pressure is 20 mmHg or more and less than 30 mmHg, or the time required for recovery is less than 5 minutes.)
binding of anti-[N-Cys]-HC021-004 serum to the peptide [3]: bound

LQAYFKGRGLDLGTFPNPFPTNENP [Compound 2]
Hypotensive activity (dose/rat) 10 nmol ([1]; Table 1, anesthetized rats): −
Hypotensive activity (dose/rat) 30 nmol ([1]; Table 1, anesthetized rats): −
Hypotensive activity (dose/rat) 100 nmol ([1]; Table 1, anesthetized rats): −
binding of anti-[N-Cys]-HC021-004 serum to the peptide [3]: did not bind

ATLRNEDTWKPLSNPRNRELFFRSLQAYFK-amide [Compound 36]
Hypotensive activity (dose/rat) 10 nmol ([1]; Table 3, anesthetized rats): −
Hypotensive activity (dose/rat) 30 nmol ([1]; Table 3, anesthetized rats): −
Hypotensive activity (dose/rat) 100 nmol ([1]; Table 3, anesthetized rats): +++ (Extremely strong activity (+++): A decrease in systolic blood pressure is 30 mmHg or more, and the time required for recovery is 5 minutes or more.)
hypotensive activity (in words) [2]: observed to have a hypotensive activity even on the awake rats
Hypotensive activity (dose/rat) 10 nmol [2]: −
Hypotensive activity (dose/rat) 30 nmol [2]: −
Hypotensive activity (dose/rat) 100 nmol [2]: ++ (Strong activity (++): A decrease in systolic blood pressure is 20 mmHg or more and less than 30 mmHg, or the time required for recovery is less than 5 minutes.)

LQAYFK-amide (LQAYFK-NH2) [Compound 4]
Hypotensive activity (dose/rat) 30 nmol ([1]; Table 1, anesthetized rats): −
Hypotensive activity (dose/rat) 100 nmol ([1]; Table 1, anesthetized rats): −
Hypotensive activity (dose/rat) 30 nmol ([1]; Table 2, anesthetized rats): −
Hypotensive activity (dose/rat) 100 nmol ([1]; Table 2, anesthetized rats): −
binding of anti-[N-Cys]-HC021-004 serum to the peptide [3]: bound
